Measured values reported in US6761904B2 (Nycomed Austria GmbH, priority 2000, dated 2004).

How the values were obtained:
[1] = Plasma pharmacokinetics of midodrine and desglymidodrine after oral intake / colon absorption (general findings and presumptions); format: in vivo, human; conditions: for Cmax: 7.5 mg, presumption made in estimating the target profile, obtained after tablet administration
[2] = after oral administration of a single dose; cited from earlier work

| SMILES | tmax of desglymidodrine after colon absorption ([1]; after application to the colon) | Cmax ([1]; human, in vivo) | Tmax ([1]; human, in vivo, po) | Cmax ([1]; human, plasma, oral) | tmax after oral intake of midodrine ([1]; midodrine itself in plasma) | persistence of the pressor effect [2] | time until the pressor effect is manifest [2] |
| --- | --- | --- | --- | --- | --- | --- | --- |
| COc1ccc(OC)c(C(O)CN)c1 (stereo not drawn) [desglymidodrine, alpha-(aminomethyl)-2,5-dimethoxy-benzenemethanol] | approximately 3 hours | ~3.75 ng/mL | 1 to 2 h |  |  |  |  |
| COc1ccc(OC)c(C(O)CNC(=O)CN)c1 (stereo not shown) [midodrine, 2-amino-N-[2-(2,5-dimethoxyphenyl)-2-hydroxyethyl]-acetamide] |  |  |  | ~11 ng/mL | about 30 min | 3 to 6 h | 20 to 90 min |
